In article PMC6418145 (Scientific Reports, 2019):

Tests used:
[1] = target: human M4 muscarinic receptor (Homo sapiens, UniProt P08173); assay: Potency at parent receptor of hM4Di; type: cell-based; conditions: data not shown
C57BL/6 J mice = assay: 5-choice serial-reaction-time task (5-CSRTT), unspecific behavioural effects; type: in vivo
Description: Training was performed in 16 standard mouse Bussey-Saksida touchscreen chambers (model #80614, Campden Instruments Ltd., UK), previously described in detail. In short, each trapezoidal operant chamber was placed in a sound- and light- attenuating box individually equipped with a house light, a reward magazine with light, a liquid reward dispenser, a sound generator, a perforated stainless steel floor, and a touchscreen placed at the wide end of the chamber and covered permanently by a black acrylic glass 5-hole mask. The reward magazine, located opposite the touchscreen, was connected to a liquid dispenser delivering strawberry milk (Yazoo®). Infrared break-beam sensors located inside and on the front of the food magazine as well as on the touch-screen walls allowed the detection of reward delivery and the animal’s locomotor activity, respectively. Four individual chambers were connected to one computer for controlling the task flow using the graphical task design software ABET II Touch (model #89505, Campden Instruments Ltd., UK) and the WhiskerServer software (Cambridge University Technical Services Ltd., UK)[27].
Mice were habituated to the chambers for three consecutive 20-min sessions during which the house light and magazine light were permanently on. At the start of each session, 30 µl strawberry milk was delivered. Every 15 s after head entry into the magazine, an additional 30 µl strawberry milk was delivered. Head entry turned the magazine light off.
The 5-CSRTT training protocol, originally designed for rats[28], was similar as that previously described for mice[29]–[31]. The training comprised six stages with 30-min sessions initiated by the illumination of the house and magazine lights and delivery of 20 µl strawberry milk. Collection of the reward switched the magazine light off and started the first trial.
In the first stage, the middle window was permanently illuminated, which was turned off when touched, followed by reward delivery (20 µl) with illumination of the magazine light. Head entry switched off the magazine light. Mice performing 30 trials in a session continued to the next stage. Training sessions in stages 2–6 comprised a maximum of 120 trials. Collection of the reward initiated the inter-trial interval (ITI) followed by the illumination of one pseudo-randomly selected aperture for a fixed stimulus duration (SD). Any touch to the screen during the ITI was classified as a premature response which was not counted as a trial and terminated the current trial. Following stimulus detection, a nose poke to the corresponding aperture within a fixed time interval (limited hold; LH) was required for reward delivery. Premature responses made during the ITI, incorrect responses, and the omission of a response within the LH led to a timeout (TO, house light switched off for 4 s) instead of delivery of reward. Correct, incorrect and omitted responses defined the total number of trials. […] The criteria to pass the last stage and reach baseline performance were to complete >30 correct trials, with ≥80% accuracy and ≤30% omissions. Percentage accuracy was defined as the number of correct trials divided by the sum of correct and incorrect trials. Percentage omissions were calculated in terms of the number of completed trials. Premature responding was calculated as a percentage of completed trials. Perseveration was calculated as the number of additional responses made in the same aperture following a correct response. Additionally, the correct-response latency (time from stimulus presentation to correct response) and reward latency (time from correct response to reward collection) were measured across all trials.
Either one or up to three days before, as well as one day after the task challenge, mice were trained at baseline conditions to check for any unexpected changes in task performance (e.g. by long lasting drug- or challenge-induced effects). […]

α1A adrenoreceptor = target: T1, α1A adrenoreceptor (Homo sapiens, UniProt P35348); assay: Off-target radioligand binding; conditions: 10 μM compound
T1 construct: expressed in transfected cells; host or cells: HEK-293 or CHO

α2A adrenoreceptor = target: T2, α2A adrenoreceptor (Homo sapiens, UniProt P08913); assay: Off-target radioligand binding; conditions: 10 μM compound
T2 construct: expressed in transfected cells; host or cells: HEK-293 or CHO

D2 dopamine receptor = target: T3, D2 dopamine receptor (Homo sapiens, UniProt P14416); assay: Off-target radioligand binding; conditions: 10 μM compound
T3 construct: expressed in transfected cells; host or cells: HEK-293 or CHO

H1 histamine receptor = target: T4, H1 histamine receptor (Homo sapiens, UniProt P35367); assay: Off-target radioligand binding
T4 construct: expressed in transfected cells; host or cells: HEK-293 or CHO

M1 muscarinic receptor = target: T5, M1 muscarinic receptor (Homo sapiens, UniProt P11229); assay: Off-target radioligand binding; conditions: 10 μM compound
T5 construct: expressed in transfected cells; host or cells: HEK-293 or CHO

M2 muscarinic receptor = target: T6, M2 muscarinic receptor (Homo sapiens, UniProt P08172); assay: Off-target radioligand binding; conditions: 10 μM compound
T6 construct: expressed in transfected cells; host or cells: HEK-293 or CHO

M3 muscarinic receptor = target: T7, M3 muscarinic receptor (Homo sapiens, UniProt P20309); assay: Off-target radioligand binding; conditions: 10 μM compound
T7 construct: expressed in transfected cells; host or cells: HEK-293 or CHO

[2] = target: T8, 5-HT1A serotonin receptor (Homo sapiens, UniProt P08908); assay: Off-target radioligand binding; conditions: 10 μM compound
T8 construct: expressed in transfected cells; host or cells: HEK-293 or CHO

[3] = test system: 5-HT1B serotonin receptor; assay: Off-target radioligand binding; design: species or system human; conditions: 10 μM compound
[4] = target: T9, 5-HT2B serotonin receptor (Homo sapiens, UniProt P41595); assay: Off-target radioligand binding
T9 construct: expressed in transfected cells; host or cells: HEK-293 or CHO

COX1 = COX1 (Homo sapiens, UniProt P23219); assay: Off-target enzyme assay; type: biochemical; conditions: 10 μM compound, not shown
COX2 = COX2 (Homo sapiens, UniProt P35354); assay: Off-target enzyme assay; type: biochemical; conditions: 10 μM compound, not shown
PDE3A = PDE3A (Homo sapiens, UniProt Q14432); assay: Off-target enzyme assay; type: biochemical; conditions: 10 μM compound, not shown
PDE4D2 = PDE4D2 (Homo sapiens, UniProt Q08499); assay: Off-target enzyme assay; type: biochemical; conditions: 10 μM compound, not shown
Lck kinase = Lck kinase (Homo sapiens, UniProt P06239); assay: Off-target enzyme assay; type: biochemical; conditions: 10 μM compound, not shown
AChE = AChE (Homo sapiens, UniProt P22303); conditions: 10 μM compound, not shown
hM3Dq = test system: hM3Dq; design: method as in PMID 25587888; conditions: FLIPR assay; cited from earlier work
[5] = Pharmacokinetics in plasma, CSF and cortical brain tissue after i.p. injection; conditions: mice; for mean concentration in brain: cortical tissue
Description: Blood (approximately 100 µl) was collected from the vena facialis in anaesthetised animals, followed by CSF sampling (approximately 10 µl) from the cisterna magna under pentobarbital anaesthesia (1:25 in saline, 10 ml/kg, i.p., Narcoren, Boehringer Ingelheim, Germany). Subsequently, the brain was removed and its anterior third (including the medial prefrontal and anterior cingulate cortices) dissected and transferred into Precellys tubes cooled in liquid nitrogen. For plasma extraction, blood was transferred to EDTA coated tubes and centrifuged for 10 min at 10,000 rpm at 4 °C. Maximal plasma concentration (Cmax), time taken to reach maximal plasma concentration (Tmax) and mean residence time were assessed using liquid chromatography–mass spectrometry analysis executed on the HP1200 (Agilent, CA, USA) coupled to the API 6500 (AB Sciex, Germany) using BI00001052 (Boehringer Ingelheim) as internal standard. In short, 5 µl of plasma or CSF sample were mixed with 10 nl internal standard. 70 µl acetonitrile (ACN)/methanol (1:1) was added, kept at −20 °C for 15 min and centrifuged for 4 min at 4000 rpm at 4 °C. 30 µl of the supernatant was mixed with 170 µl 0.1% formic acid. Brain homogenization was executed by Precellys Evolution (Bertin) after adding ACN/methanol (1:1)/aq.dest. (3:1) to each brain sample with a volume corresponding to 4 parts of the brain weight, followed by centrifugation for 1 min at 4000 rpm at 4 °C. 5 µl of the supernatant was mixed with 10 nl of internal standard.

[6] = 15 min after i.p. 3.5 mg/kg CNO
[7] = 30 min after i.p. 3.5 mg/kg CNO
[8] = 60 min after i.p. 3.5 mg/kg CNO

T9 sequence (P41595 whole entry): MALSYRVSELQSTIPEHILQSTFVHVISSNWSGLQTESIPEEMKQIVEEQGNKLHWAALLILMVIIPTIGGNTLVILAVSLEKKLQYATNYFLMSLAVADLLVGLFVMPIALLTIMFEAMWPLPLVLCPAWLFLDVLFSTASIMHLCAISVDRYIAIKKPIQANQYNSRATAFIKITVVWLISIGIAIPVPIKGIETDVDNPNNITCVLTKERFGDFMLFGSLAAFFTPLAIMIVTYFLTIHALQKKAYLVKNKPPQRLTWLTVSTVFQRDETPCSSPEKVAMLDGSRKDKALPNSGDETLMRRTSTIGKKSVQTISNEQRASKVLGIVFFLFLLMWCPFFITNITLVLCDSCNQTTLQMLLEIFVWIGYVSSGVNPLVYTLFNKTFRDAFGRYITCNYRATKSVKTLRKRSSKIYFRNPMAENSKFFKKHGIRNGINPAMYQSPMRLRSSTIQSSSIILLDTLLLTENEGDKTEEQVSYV
T4 sequence (P35367 whole entry): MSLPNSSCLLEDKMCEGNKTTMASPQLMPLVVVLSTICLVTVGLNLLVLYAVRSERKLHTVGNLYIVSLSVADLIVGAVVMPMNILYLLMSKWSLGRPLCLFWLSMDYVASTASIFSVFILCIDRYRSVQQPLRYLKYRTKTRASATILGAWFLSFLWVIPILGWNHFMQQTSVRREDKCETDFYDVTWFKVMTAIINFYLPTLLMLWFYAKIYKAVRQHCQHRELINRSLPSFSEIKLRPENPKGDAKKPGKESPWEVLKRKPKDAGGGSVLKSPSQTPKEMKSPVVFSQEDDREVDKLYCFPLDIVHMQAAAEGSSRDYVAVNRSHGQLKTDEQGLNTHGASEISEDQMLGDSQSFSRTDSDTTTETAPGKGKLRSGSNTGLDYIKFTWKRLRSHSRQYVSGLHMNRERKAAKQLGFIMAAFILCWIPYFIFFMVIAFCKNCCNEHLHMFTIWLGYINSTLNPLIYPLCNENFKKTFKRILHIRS
T2 sequence (P08913 whole entry): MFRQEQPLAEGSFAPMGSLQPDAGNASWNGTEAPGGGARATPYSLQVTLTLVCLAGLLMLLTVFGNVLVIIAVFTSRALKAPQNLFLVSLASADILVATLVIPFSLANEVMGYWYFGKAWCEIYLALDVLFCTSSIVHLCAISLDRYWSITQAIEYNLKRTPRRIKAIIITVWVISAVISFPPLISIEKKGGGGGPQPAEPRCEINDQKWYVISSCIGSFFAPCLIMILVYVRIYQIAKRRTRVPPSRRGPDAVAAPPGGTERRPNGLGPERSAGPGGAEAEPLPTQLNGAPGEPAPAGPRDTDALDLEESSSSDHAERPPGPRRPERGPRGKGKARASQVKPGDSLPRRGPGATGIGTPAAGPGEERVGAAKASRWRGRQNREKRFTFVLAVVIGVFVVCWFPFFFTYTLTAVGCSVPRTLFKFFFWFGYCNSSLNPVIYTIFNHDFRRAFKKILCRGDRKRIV
T7 sequence (P20309 whole entry): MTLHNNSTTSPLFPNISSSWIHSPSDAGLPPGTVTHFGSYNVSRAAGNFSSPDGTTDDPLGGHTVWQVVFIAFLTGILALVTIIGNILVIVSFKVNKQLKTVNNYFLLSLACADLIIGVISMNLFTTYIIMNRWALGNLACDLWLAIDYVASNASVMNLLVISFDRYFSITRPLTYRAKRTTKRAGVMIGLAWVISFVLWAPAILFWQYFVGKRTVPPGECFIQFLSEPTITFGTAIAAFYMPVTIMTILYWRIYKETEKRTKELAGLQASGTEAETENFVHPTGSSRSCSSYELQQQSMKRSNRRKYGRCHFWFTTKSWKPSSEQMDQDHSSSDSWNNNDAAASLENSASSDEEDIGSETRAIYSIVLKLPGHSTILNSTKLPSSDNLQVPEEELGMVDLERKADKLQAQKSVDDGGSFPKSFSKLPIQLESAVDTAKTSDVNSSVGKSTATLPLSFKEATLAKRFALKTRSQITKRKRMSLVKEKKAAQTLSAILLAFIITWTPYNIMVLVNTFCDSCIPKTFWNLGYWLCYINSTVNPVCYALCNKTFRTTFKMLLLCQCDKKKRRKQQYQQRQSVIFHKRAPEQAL
Chain of COX2 (P35354 18-604): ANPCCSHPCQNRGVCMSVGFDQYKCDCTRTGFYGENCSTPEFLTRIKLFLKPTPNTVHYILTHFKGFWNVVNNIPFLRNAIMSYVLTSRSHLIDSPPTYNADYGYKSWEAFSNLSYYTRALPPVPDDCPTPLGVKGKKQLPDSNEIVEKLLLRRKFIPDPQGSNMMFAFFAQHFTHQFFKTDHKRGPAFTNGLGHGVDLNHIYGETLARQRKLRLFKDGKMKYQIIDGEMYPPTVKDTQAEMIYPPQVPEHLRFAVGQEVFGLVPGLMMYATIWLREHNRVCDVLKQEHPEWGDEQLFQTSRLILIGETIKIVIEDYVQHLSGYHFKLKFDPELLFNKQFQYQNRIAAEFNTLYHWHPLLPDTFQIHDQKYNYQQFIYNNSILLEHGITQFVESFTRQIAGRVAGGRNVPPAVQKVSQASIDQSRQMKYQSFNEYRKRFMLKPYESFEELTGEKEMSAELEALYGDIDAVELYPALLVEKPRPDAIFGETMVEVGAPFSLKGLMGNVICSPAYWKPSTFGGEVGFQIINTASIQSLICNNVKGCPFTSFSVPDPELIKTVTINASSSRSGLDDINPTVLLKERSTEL
T8 sequence (P08908 whole entry): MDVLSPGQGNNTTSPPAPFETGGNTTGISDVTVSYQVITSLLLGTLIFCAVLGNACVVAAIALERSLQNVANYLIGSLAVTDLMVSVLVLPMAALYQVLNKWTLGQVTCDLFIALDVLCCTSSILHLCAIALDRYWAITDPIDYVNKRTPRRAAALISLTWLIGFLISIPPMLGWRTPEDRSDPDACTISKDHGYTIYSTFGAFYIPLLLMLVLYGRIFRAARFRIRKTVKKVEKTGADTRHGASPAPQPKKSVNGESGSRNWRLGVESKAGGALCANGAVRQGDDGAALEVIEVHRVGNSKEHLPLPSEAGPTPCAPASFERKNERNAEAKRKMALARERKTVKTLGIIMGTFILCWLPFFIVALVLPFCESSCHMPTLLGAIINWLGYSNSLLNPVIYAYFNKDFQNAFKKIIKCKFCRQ
T5 sequence (P11229 whole entry): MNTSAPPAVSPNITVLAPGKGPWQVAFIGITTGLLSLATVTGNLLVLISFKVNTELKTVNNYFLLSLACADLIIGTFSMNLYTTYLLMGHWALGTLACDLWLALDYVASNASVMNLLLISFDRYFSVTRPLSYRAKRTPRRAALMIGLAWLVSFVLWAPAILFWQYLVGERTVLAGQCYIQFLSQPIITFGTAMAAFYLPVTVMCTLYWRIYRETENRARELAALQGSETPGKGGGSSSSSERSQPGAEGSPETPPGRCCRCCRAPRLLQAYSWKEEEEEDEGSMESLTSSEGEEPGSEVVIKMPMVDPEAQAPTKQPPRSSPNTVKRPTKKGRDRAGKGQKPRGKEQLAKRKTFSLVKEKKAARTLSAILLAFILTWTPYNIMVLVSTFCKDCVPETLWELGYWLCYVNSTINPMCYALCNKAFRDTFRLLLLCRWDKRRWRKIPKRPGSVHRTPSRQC
Chain of Lck kinase (P06239 whole entry): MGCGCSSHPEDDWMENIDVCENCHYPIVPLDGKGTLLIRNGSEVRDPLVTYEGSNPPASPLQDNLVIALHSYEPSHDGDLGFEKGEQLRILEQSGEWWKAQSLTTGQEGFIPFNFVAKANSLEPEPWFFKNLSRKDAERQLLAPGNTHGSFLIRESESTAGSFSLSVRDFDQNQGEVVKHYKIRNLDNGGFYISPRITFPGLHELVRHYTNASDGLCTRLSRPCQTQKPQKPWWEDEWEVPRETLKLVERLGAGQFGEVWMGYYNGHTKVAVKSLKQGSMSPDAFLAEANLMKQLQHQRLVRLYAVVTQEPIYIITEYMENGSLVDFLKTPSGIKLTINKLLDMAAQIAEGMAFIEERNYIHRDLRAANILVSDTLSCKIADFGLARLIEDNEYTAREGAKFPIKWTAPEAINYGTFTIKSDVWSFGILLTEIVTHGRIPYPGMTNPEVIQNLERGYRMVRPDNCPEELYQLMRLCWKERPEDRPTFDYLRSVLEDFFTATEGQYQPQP
T1 sequence (P35348 whole entry): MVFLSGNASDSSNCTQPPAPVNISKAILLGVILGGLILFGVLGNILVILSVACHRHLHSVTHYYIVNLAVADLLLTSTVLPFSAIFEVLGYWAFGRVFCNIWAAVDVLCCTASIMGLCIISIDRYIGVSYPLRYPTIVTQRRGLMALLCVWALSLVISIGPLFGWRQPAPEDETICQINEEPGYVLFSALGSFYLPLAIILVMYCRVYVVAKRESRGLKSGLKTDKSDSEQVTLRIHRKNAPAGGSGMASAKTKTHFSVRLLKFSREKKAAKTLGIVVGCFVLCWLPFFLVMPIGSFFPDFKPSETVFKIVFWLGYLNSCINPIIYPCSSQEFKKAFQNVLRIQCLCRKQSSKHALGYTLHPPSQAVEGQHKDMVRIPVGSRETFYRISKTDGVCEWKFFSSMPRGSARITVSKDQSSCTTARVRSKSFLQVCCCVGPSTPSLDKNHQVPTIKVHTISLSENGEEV
T3 sequence (P14416 1-414 isoform P14416-2): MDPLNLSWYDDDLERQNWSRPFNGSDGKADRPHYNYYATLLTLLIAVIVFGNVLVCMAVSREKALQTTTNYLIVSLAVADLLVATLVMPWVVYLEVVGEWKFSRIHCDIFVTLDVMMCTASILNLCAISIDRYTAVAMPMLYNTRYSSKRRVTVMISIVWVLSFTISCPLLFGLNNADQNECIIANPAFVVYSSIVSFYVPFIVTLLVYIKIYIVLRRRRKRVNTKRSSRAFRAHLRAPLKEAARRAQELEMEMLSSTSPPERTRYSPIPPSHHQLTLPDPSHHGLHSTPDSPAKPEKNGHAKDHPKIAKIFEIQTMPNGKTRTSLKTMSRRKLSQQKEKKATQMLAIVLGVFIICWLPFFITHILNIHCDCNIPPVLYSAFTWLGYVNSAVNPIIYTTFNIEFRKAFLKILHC

## C[N+]1([O-])CCN(C2=Nc3cc(Cl)ccc3Nc3ccccc32)CC1 [CNO, clozapine-N-oxide]
[1]
  EC50: 6300 nM
C57BL/6 J mice; CNO 3.5 or 10 mg/kg i.p., 10 min before test, vs vehicle
  behavioural changes in 5-CSRTT parameters: did not produce any significant behavioural changes in most 5-CSRTT parameters
C57BL/6 J mice; CNO highest dose (10 mg/kg) i.p.
  number of perseverative responses: not at the highest dose
C57BL/6 J mice; CNO intermediate dose (3.5 mg/kg) i.p., p = 0.0142
  number of perseverative responses: modest increase
α1A adrenoreceptor
  competitive inhibition of ligand binding: over 50%
α2A adrenoreceptor
  competitive inhibition of ligand binding: over 50%
D2 dopamine receptor
  competitive inhibition of ligand binding: over 50%
H1 histamine receptor; 10 μM compound
  competitive inhibition of ligand binding: over 50%
H1 histamine receptor; bound stated in discussion
  Ki: < 100 nM
M1 muscarinic receptor
  competitive inhibition of ligand binding: over 50%
M2 muscarinic receptor
  competitive inhibition of ligand binding: over 50%
M3 muscarinic receptor
  competitive inhibition of ligand binding: over 50%
[2]
  competitive inhibition of ligand binding: over 50%
[3]
  competitive inhibition of ligand binding: over 50%
[4]; 10 μM compound
  competitive inhibition of ligand binding: over 50%
[4]; bound stated in discussion
  Ki: < 100 nM
COX1
  inhibition: < 20%
COX2
  inhibition: < 20%
PDE3A
  inhibition: < 20%
PDE4D2
  inhibition: < 20%
Lck kinase
  inhibition: < 20%
AChE
  inhibition: < 20%
hM3Dq
  EC50: 6 nM
[5]; 10 mg/kg CNO
  brain concentration by linear extrapolation: ≤ 70 nM
  free (CSF) level by linear extrapolation: ≤ 30 nM
[5]; 15 min after i.p. 1 mg/kg CLZ
  mean CNO concentration as % of the CLZ concentration in plasma: approximately 1.1%
[5]; [6]
  mean concentration in CSF: 11.2 nM
  mean concentration in brain: 23.8 nM
[5]; [7]
  mean concentration in CSF: 10.8 nM
  mean concentration in brain: 18.5 nM
[5]; [8]
  free level (CSF): ~4.05 nM
  mean concentration in brain: could not be detected
[5]; after i.p. 1 mg/kg CLZ, other than plasma at 15 min
  detection at all other time points and in the other sample types: no CNO was detectable
